According to patent US10323026B2, “Heterocyclic compound” (Takeda Pharmaceutical Company Limited, priority 2016, dated 2019):

Biological target: T1, His-hMAGL (recombinant polyhistidine tagged human MAGL protein) (Homo sapiens, UniProt Q99685)
T1 construct: polyhistidine (His) (N); made in house; host or cells: E. coli BL21(DE3)
T1 sequence (Q99685 1-303): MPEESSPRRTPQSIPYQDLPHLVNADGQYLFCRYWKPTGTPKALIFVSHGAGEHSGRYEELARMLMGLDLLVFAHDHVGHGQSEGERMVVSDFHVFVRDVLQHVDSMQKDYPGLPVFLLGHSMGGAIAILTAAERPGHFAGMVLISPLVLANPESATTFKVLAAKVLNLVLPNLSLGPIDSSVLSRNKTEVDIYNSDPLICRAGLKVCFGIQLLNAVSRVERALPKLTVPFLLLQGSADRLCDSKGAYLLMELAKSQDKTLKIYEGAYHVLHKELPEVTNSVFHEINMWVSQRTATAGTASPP
Assay: Measurement of MAGL inhibitory activity (RapidFire-mass spectrometry of arachidonic acid produced from 2-arachidonylglycerol)
Type: biochemical
Settings: test compound 10 μM; His-hMAGL; substrate 2-arachidonylglycerol; 60 min preincubation; read-out: % inhibition (10 μM)
Method in brief: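 After quenching with acetonitrile containing 3 μM arachidonic acid-d8, the arachidonic acid formed was measured by online SPE RapidFire-MS/MS in negative SRM mode and corrected against the d8 standard. Inhibition (%) was calculated relative to compound-free and enzyme-free groups.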

Compound	inhibition at 10 µM
O=C1N[C@]2(CO1)C[C@H](C(=O)N1CC(CC(F)(F)c3ccc(F)c(C(F)(F)F)c3)C1)C2 [Example 100, (2s,4s)-2-((3-(2,2-difluoro-2-(4-fluoro-3-(trifluoromethyl)phenyl)ethyl)azetidin-1-yl)carbonyl)-7-oxa-5-azaspiro[3.4]octan-6-one]	100%
O=C1N[C@]2(CO1)C[C@H](C(=O)N1CC(OCc3cc(F)c(C(F)(F)F)cc3F)C1)C2 [Example 101, (2s,4s)-2-((3-((2,5-difluoro-4-(trifluoromethyl)benzyl)oxy)azetidin-1-yl)carbonyl)-7-oxa-5-azaspiro[3.4]octan-6-one]	100%
O=C1N[C@]2(CO1)C[C@H](C(=O)N1CC(OCc3ccc(C(F)(F)F)c(Cl)c3F)C1)C2 [Example 102, (2s,4s)-2-((3-((3-chloro-2-fluoro-4-(trifluoromethyl)benzyl)oxy)azetidin-1-yl)carbonyl)-7-oxa-5-azaspiro[3.4]octan-6-one]	100%
O=C1N[C@]2(CO1)C[C@H](C(=O)N1CC(CC(F)(F)c3ccc(C(F)(F)F)c(F)c3F)C1)C2 [Example 103, (2s,4s)-2-((3-(2-(2,3-difluoro-4-(trifluoromethyl)phenyl)-2,2-difluoroethyl)azetidin-1-yl)carbonyl)-7-oxa-5-azaspiro[3.4]octan-6-one]	100%
O=C1N[C@]2(CO1)C[C@H](C(=O)N1CC(/C=C(\F)c3ccc(C(F)(F)F)c(F)c3F)C1)C2 [Example 104, (2s,4s)-2-((3-((Z)-2-(2,3-difluoro-4-(trifluoromethyl)phenyl)-2-fluorovinyl)azetidin-1-yl)carbonyl)-7-oxa-5-azaspiro[3.4]octan-6-one]	100%
O=C1N[C@]2(CO1)C[C@H](C(=O)N1CC(OCc3cc(Cl)c(F)c(Cl)c3)C1)C2 [Example 106, (2s,4s)-2-((3-((3,5-dichloro-4-fluorobenzyl)oxy)azetidin-1-yl)carbonyl)-7-oxa-5-azaspiro[3.4]octan-6-one]	100%
Cc1ccc(C(F)(F)CC2CN(C(=O)[C@H]3C[C@]4(COC(=O)N4)C3)C2)cc1Cl [Example 109, (2s,4s)-2-((3-(2-(3-chloro-4-methylphenyl)-2,2-difluoroethyl)azetidin-1-yl)carbonyl)-7-oxa-5-azaspiro[3.4]octan-6-one]	99%
O=C1N[C@]2(CO1)C[C@H](C(=O)N1CC(CC(F)(F)c3ccc(C(F)(F)F)c(Cl)c3)C1)C2 [Example 110, (2s,4s)-2-((3-(2-(3-chloro-4-(trifluoromethyl)phenyl)-2,2-difluoroethyl)azetidin-1-yl)carbonyl)-7-oxa-5-azaspiro[3.4]octan-6-one]	100%
O=C1N[C@]2(CO1)C[C@H](C(=O)N1CC(/C=C(\F)c3ccc(C(F)(F)F)c(Cl)c3)C1)C2 [Example 111, (2s,4s)-2-((3-((Z)-2-(3-chloro-4-(trifluoromethyl)phenyl)-2-fluorovinyl)azetidin-1-yl)carbonyl)-7-oxa-5-azaspiro[3.4]octan-6-one]	100%
O=C1N[C@]2(CO1)C[C@H](C(=O)N1CCC(C(F)(F)c3ccc(F)cc3Cl)CC1)C2 [Example 112, (2s,4s)-2-((4-((2-chloro-4-fluorophenyl)(difluoro)methyl)piperidin-1-yl)carbonyl)-7-oxa-5-azaspiro[3.4]actan-6-one]	100%
O=C1N[C@]2(CO1)C[C@H](C(=O)N1CC(OCc3cc(C(F)(F)F)cc(C(F)(F)F)c3)C1)C2 [Example 113, (2s,4s)-2-((3-((3,5-bis(trifluoromethyl)benzyl)oxy)azetidin-1-yl)carbonyl)-7-oxa-5-azaspiro[3.4]octan-6-one]	100%
Cc1cc(COC2CN(C(=O)[C@H]3C[C@]4(COC(=O)N4)C3)C2)c(F)cc1C(F)(F)F [Example 115, (2s,4s)-2-((3-((2-fluoro-5-methyl-4-(trifluoromethyl)benzyl)oxy)azetidin-1-yl)carbonyl)-7-oxa-5-azaspiro[3.4]octan-6-one]	100%

Continued, values first:

inhibition at 10 µM	Compound
100%	O=C1N[C@]2(CO1)C[C@H](C(=O)N1CC(OCc3ccc(OC(F)(F)F)c(Cl)c3)C1)C2 [Example 116, (2s,4s)-2-((3-((3-chloro-4-(trifluoromethoxy)benzyl)oxy)azetidin-1-yl)carbonyl)-7-oxa-5-azaspiro[3.4]octan-6-one]
100%	O=C1N[C@]2(CO1)C[C@H](C(=O)N1CC(CC(F)(F)c3ccc(C(F)(F)F)cc3Cl)C1)C2 [Example 117, (2s,4s)-2-((3-(2-(2-chloro-4-(trifluoromethyl)phenyl)-2,2-difluoroethyl)azetidin-1-yl)carbonyl)-7-oxa-5-azaspiro[3.4]octan-6-one]
100%	O=C1N[C@]2(CO1)C[C@H](C(=O)N1CC(CC(F)(F)c3ccc(Cl)c(C(F)(F)F)c3)C1)C2 [Example 118, (2s,4s)-2-((3-(2-(4-chloro-3-(trifluoromethyl)phenyl)-2,2-difluoroethyl)azetidin-1-yl)carbonyl)-7-oxa-5-azaspiro[3.4]octan-6-one]
100%	Cc1ccc(COCC2CN(C(=O)[C@H]3C[C@]4(COC(=O)N4)C3)C2)cc1Cl [Example 120, (2s,4s)-2-((3-(((3-chloro-4-methylbenzyl)oxy)methyl)azetidin-1-yl)carbonyl)-7-oxa-5-azaspiro[3.4]octan-6-one]
101%	Cc1cc(COCC2CN(C(=O)[C@H]3C[C@]4(COC(=O)N4)C3)C2)ccc1Cl [Example 121, (2s,4s)-2-((3-(((4-chloro-3-methylbenzyl)oxy)methyl)azetidin-1-yl)carbonyl)-7-oxa-5-azaspiro[3.4]octan-6-one]
99%	Cc1ccc(COC2CN(C(=O)[C@H]3C[C@@]4(COC(=O)N4)C3)C2)cc1Cl [Example 123, (2r,4r)-2-((3-((3-chloro-4-methylbenzyl)oxy)azetidin-1-yl)carbonyl)-7-oxa-5-azaspiro[3.4]octan-6-one]
100%	N#Cc1cc(C(F)(F)F)ccc1OCC1CCN(C(=O)[C@H]2C[C@]3(COC(=O)N3)C2)CC1 [Example 128, 2-((1-(((2s,4s)-6-oxo-7-oxa-5-azaspiro[3.4]oct-2-yl)carbonyl)piperidin-4-yl)methoxy)-5-(trifluoromethyl)benzonitrile]
100%	N#Cc1cc(Cl)ccc1OCC1CCN(C(=O)[C@H]2C[C@]3(COC(=O)N3)C2)CC1 [Example 129, 5-chloro-2-((1-(((2s,4s)-6-oxo-7-oxa-5-azaspiro[3.4]oct-2-yl)carbonyl)piperidin-4-yl)methoxy)benzonitrile]
100%	N#Cc1ccc(OCC2CCN(C(=O)[C@H]3C[C@]4(COC(=O)N4)C3)CC2)c(Cl)c1 [Example 130, 3-chloro-4-((1-(((2s,4s)-6-oxo-7-oxa-5-azaspiro[3.4]oct-2-yl)carbonyl)piperidin-4-yl)methoxy)benzonitile]
